Structures can show the parent of a compound that is named as a salt. Where two headings read alike, the source gives them in different places. Blank lines part the entries; values can stand above or below the compound they belong to.
How the values were obtained:
[1] = Magnevist release in vitro from PEEK nanochannel capsules (MR T1 mapping); format: physicochemical; settings: at plateau beginning by Day 3; 47 mg/ml loading, PBS, 37 °C, n=4; approximation based on loading concentration
Procedure: The drug eluting fiducial markers were loaded with a number of different molecules to examine release kinetics into simulated physiological solution in vitro. In a series of experiments, the implants were loaded with ˜2.5 μL of OX86, FGK45, or Magnevist, placed in a 70 μL cuvette, and immersed in PBS. The cuvettes were sealed with tight-fitting lids and kept in an incubator at 37° C. The PBS solution was sampled and replaced daily. The OX86 and FGK45 release was quantified by micro-BCA assay (Sigma-Aldrich). The Magnevist was quantified through MR scanning. (7 T magnet, cut-down 96-well plate in a wrist coil). An additional experiment for quantifying IgG release was conducted similarly, but at room temperature and quantified via UV-Vis spectroscopy at 280 nm sampled every 10 minutes.
PEEK nanochannel capsules loaded with Magnevist (n=4) were immersed in 500 μl of PBS in microvolume cuvettes sealed with tight-fitting lids. These microvolume cuvettes were then placed in a 37° C. incubator. The 500 μl of sink solution were sampled and replaced daily for 7 days. The sink samples were stored at 4° C. Magnevist concentration within the samples was quantified through MR imaging of the samples within a custom-built 49 well plate (7×7) with 300 μl well volumes. […]

[2] = design: species or system C57B16 mice; settings: mouse, in vivo
Procedure: All animal procedures described herein followed IACUC protocols approved by their requisite institutions. C57B16 mice were implanted with 10^6 melanoma cells (B16F10) in the upper thigh (n=5). Once tumors reached 12 mm in its longer axis, sterile nanochannel implants loaded with 470 mg/ml of Magnevist were percutaneously implanted into the tumors with a 15 G, percutaneous trocar at a 90°angle from the axial axis of the tumor. Briefly, rodents were anesthetized with 3% isofluorane and immobilized within a sterile field. The percutaneous implantation site was cleaned with chlorhexidine and 70% ethanol and all nearby hair was shaved. The trocar was inserted to the target depth of approximately 5 mm. The nanochannel capsule was extruded through manual pressure with the obturator and the trocar was removed. A single drop of bupivicaine was added to the implantation site. The implantation site was closed with suture to ensure implant immobility and restrict animal agitation of the site. The mice had secondary heating maintained throughout the procedure and until they recovered from anesthesia.
For the in vivo MR imaging, T1- and T2-weighted images were acquired axially with respect to the laboratory frame of reference on a 7 T Bruker BioSpec Scanner (Bruker Biospin, Billerica, MA, USA). […]

[3] = Doxorubicin release in vitro from nanochannel capsules (UV-Vis at 479 nm); format: physicochemical; settings: in 4 days; capsules with 20 nm nanochannels, loading solution 0.58 mg/ml, 23 °C, n=5
Procedure: Doxorubicin loaded nanochannel capsules (n=5) were immersed in 400 μl of Millipore water in microvolume spectroscopy cuvettes sealed with tight-fitting lids. Absorbance measures were taken every 10 min for 9 days at 479 nm by a custom-built robotic carousel (Quantum Northwest, Inc.) connected to a UV-Vis spectrophotometer (Cary 50, Agilent Technologies, Inc.). The 479 nm wavelength was selected as optimal for doxorubicin with this system by prior full spectrum analysis. The cuvettes were maintained at 23±0.3° C. for the duration of the experiment. Data were normalized with respect to a Millipore water blank, and the cumulative release of the agents was obtained through comparison to a standard curve.
The nanochannel capsules were loaded with Doxorubicin and placed in isotonic conditions in vitro to characterize their release kinetics. The nanochannel capsules were immersed in PBS within microvolume cuvettes, which were sealed with tight-fitting lids. Release into the sink solution was measured via absorbance measurements at 479 nm by a robotic 48-cell carousel (Quantum Northwest, Inc.) linked to a UV-Vis Spectrophotometer (Cary 50, Agilent Technologies, Inc.). Overall drug release was evaluated via comparison of measured absorbances to standard curves following normalization with respect to initial conditions (t=0).

[4] = from BioNumbers (Milo et al.), cited from earlier work

loaded Magnevist released [1]: 85%
distance from implant's exterior at which observable enhancement begins [2]: 2-5 mm
thickness of band of observable enhancement [2]: approximately 1 mm
Compound: CNC[C@H](O)[C@@H](O)[C@H](O)[C@H](O)CO.CNC[C@H](O)[C@@H](O)[C@H](O)[C@H](O)CO.O=C([O-])CN(CCN(CC(=O)[O-])CC(=O)O)CCN(CC(=O)[O-])CC(=O)O.[Gd+3] [Magnevist, gadopentetate dimeglumine]

release depleted fraction of the reservoir volume [3]: around 80%
Compound: COc1cccc2c1C(=O)c1c(O)c3c(c(O)c1C2=O)C[C@@](O)(C(=O)CO)C[C@@H]3O[C@H]1C[C@H](N)[C@H](O)[C@H](C)O1 [Doxorubicin, Doxorubicin hydrochloride salt]

Compound: Immunoglobulin G
hydrodynamic radius [4]: 6.4 nm
hydrodynamic radius ([4]; listed as IgG isotype immunoproteins): approximately 6.4 nm

From patent US12151021B2, “Implantable nanochannel delivery devices” (THE METHODIST HOSPITAL SYSTEM, priority 2015, dated 2024)
